Results reported in US7754654B2, “Substituted spirocyclic ketoenols” (Bayer CropScience AG, priority 2002, dated 2010).
Values joined by “and” are separate entries in the source; they are usually repeats but may differ in a detail not shown here. Equal values may be shown once.

Legend:
Type in all cases: in vivo
[1] = test system: caterpillars of the army worm (Spodoptera frugiperda); test: Spodoptera frugiperda test (cabbage leaf dip)
Method: (§1) To produce a suitable preparation of active compound, 1 part by weight of active compound is mixed with the stated amounts of solvent and emulsifier, and the concentrate is diluted with emulsifier-containing water to the desired concentration. Cabbage leaves (Brassica oleracea) are treated by being dipped into the preparation of active compound of the desired concentration and are populated with caterpillars of the army worm (Spodoptera frugiperda) while the leaves are still moist. After the desired period of time, the kill in % is determined. 100% means that all caterpillars have been killed; 0% means that none of the caterpillars have been killed.

Echinochloa = test: Pre-emergence test; conditions: 2000 g of ai/ha, after three weeks
Method: (§2) To produce a suitable preparation of active compound, 1 part by weight of active compound is mixed with the stated amount of solvent, the stated amount of emulsifier is added and the concentrate is diluted with water to the desired concentration. Seeds of the test plants are sown in normal soil. After about 24 hours, the soil is sprayed with the preparation of active compound such that the particular amounts of active compound desired are applied per unit area. The concentration of the spray liquor is chosen such that the particular amounts of active compound desired are applied in 1000 l of water/ha. After three weeks, the degree of damage to the plants is rated in % damage in comparison to the development of the untreated control. The figures denote: • 0%=no effect (like untreated control) • 100%=total destruction

Sinapis [2] = test: Pre-emergence test; conditions: 2000 g of ai/ha, after three weeks
Method: as §2

[3] = test system: greenhouse red spider mite (Tetranychus urticae); test: Tetranychus test (OP-resistant/dip treatment); conditions: 100 ppm; bean plants dipped
Method: To produce a suitable preparation of active compound, 1 part by weight of active compound is mixed with the stated amounts of solvent and emulsifier, and the concentrate is diluted with emulsifier-containing water to the desired concentration. Bean plants (Phaseolus vulgaris) which are heavily infested by all stages of the greenhouse red spider mite (Tetranychus urticae) are dipped into a preparation of active compound of the desired concentration. After the desired period of time, the effect in % is determined. 100% means that all spider mites have been killed; 0% means that none of the spider mites have been killed.

[4] = test system: larvae of the mustard beetle (Phaedon cochleariae); test: Phaedon larvae test (cabbage leaf dip); conditions: 1000 ppm
Method: as §1, with “with larvae” for “with caterpillars”, “the mustard beetle (Phaedon cochleariae)” for “the army worm (Spodoptera frugiperda)”, “all beetle larvae” for “all caterpillars”, “the beetle larvae” for “the caterpillars”

Meloidogyne incognita = test: Meloidogyne test (gall formation on lettuce roots); conditions: 20 ppm; nematicidal action by gall formation, 100% = no galls
Method: To produce a suitable preparation of active compound, 1 part by weight of active compound is mixed with the stated amounts of solvent and emulsifier, and the concentrate is diluted with water to the desired concentration. Containers are filled with sand, solution of active compound, Meloidogyne incognita egg/larvae suspension and lettuce seeds. The lettuce seeds germinate and the plants develop. On the roots, galls are formed. After the desired period of time, the nematicidal action is determined in % by the gall formation. 100% means that no galls have been found; 0% means that the number of galls on the treated plants corresponds to that of the untreated control.

[5] = test system: peach aphid (Myzus persicae); test: Myzus test (cabbage leaf dip)
Method: as §1, with “oleracea) which are heavily infested by the peach aphid (Myzus persicae)” for “oleracea)”, “concentration.” for “concentration and are populated with caterpillars of the army worm (Spodoptera frugiperda) while the leaves are still moist.”, “aphids” for “caterpillars”

Alopecurus [6] = test: Pre-emergence test; conditions: after three weeks
Method: as §2

Amaranthus [7] = test: Pre-emergence test; conditions: after three weeks
Method: as §2

Setaria [8] = test: Pre-emergence test; conditions: 250 g of ai/ha, after three weeks
Method: as §2

Amaranthus [9] = test: Post-emergence test; conditions: 250 g of ai/ha, after three weeks
Method: as §2, with “Test plants” for “Seeds”, “a height of 5-15 cm” for “the test plants”, “are” for “are sown in normal soil. After about 24 hours, the soil is”

Setaria [10] = test: Post-emergence test; conditions: 250 g of ai/ha, after three weeks
Method: as §2, with “Test plants” for “Seeds”, “a height of 5-15 cm” for “the test plants”, “are” for “are sown in normal soil. After about 24 hours, the soil is”

Sinapis [11] = test: Post-emergence test; conditions: 250 g of ai/ha, after three weeks
Method: as §2, with “Test plants” for “Seeds”, “a height of 5-15 cm” for “the test plants”, “are” for “are sown in normal soil. After about 24 hours, the soil is”

Sugar beet = test: Post-emergence test; conditions: 250 g of ai/ha, after three weeks
Method: as §2, with “Test plants” for “Seeds”, “a height of 5-15 cm” for “the test plants”, “are” for “are sown in normal soil. After about 24 hours, the soil is”

Alopecurus [12] = test: Post-emergence test; conditions: 250 g of ai/ha, after three weeks
Method: as §2, with “Test plants” for “Seeds”, “a height of 5-15 cm” for “the test plants”, “are” for “are sown in normal soil. After about 24 hours, the soil is”

With C=CCOC1CCC2(CC1)NC(=O)C(c1c(C)cc(Cl)cc1C)=C2O (single isomer, unassigned) [Ex. I-1-a-11] the “Kill rate in % after 7d” value ([1]; 500 ppm) was 100%, the “% damage” value (Echinochloa) was 100% and the “% damage” value (Sinapis [2]) was 90%. For the same compound, the “Kill rate in % after 7d” value [3] was 95%.
In the case of Cc1cc(C)c(C2=C(O)C3(CCC(OCc4ccccc4Cl)CC3)NC2=O)cc1C (single isomer, unassigned) [Ex. I-1-a-20], the “Kill rate in % after 7d” value [4] is reported as 100%.
With Cc1cc(C)c(C2=C(O)C3(CCC(OCc4cccc(Cl)c4)CC3)NC2=O)c(C)c1C (single isomer, unassigned) [Ex. I-1-a-22] the “Kill rate in % after 7d” value [4] was 100% and the “Effect in % after 14d” value (Meloidogyne incognita) was 98%.
O=C1NC2(CCC(OCc3ccc(Cl)cc3)CC2)C(O)=C1c1cc(-c2ccc(Cl)cc2)ccc1Cl (single isomer, unassigned) [Ex. I-1-a-31] was tested, and the “Kill rate in % after 7d” value ([1]; 500 ppm) was 100%, the “Effect in % after 14d” value (Meloidogyne incognita) was 95% and the “Kill rate in % after 7d” value [3] was 99%.
Cc1cc(C)c(C2=C(O)C3(CCC(OCC4CCCO4)CC3)NC2=O)cc1C (single isomer, unassigned) [Ex. I-1-a-8] was tested, and the “Kill rate in % after 7d” value ([1]; 1000 ppm) was 100%.
For COCCOC1CCC2(CC1)NC(=O)C(c1c(C)cc(C)c(C)c1C)=C2O (single isomer, unassigned) [Ex. I-1-a-3], the “Kill rate in % after 7d” value [4] was 100% and the “Kill rate in % after 7d” value [3] was 98%.
For Cc1ccc(C)c(C2=C(O)C3(CCC(OCc4ccccc4Cl)CC3)NC2=O)c1 (single isomer, unassigned) [Ex. I-1-a-21], the “Kill rate in % after 7d” value [4] was 100%.
Cc1cc(C)c(C2=C(O)C3(CCC(OCc4ccc(Cl)cc4)CC3)NC2=O)c(C)c1C (single isomer, unassigned) [Ex. I-1-a-26] was tested, and the “Kill rate in % after 7d” value [4] was 100% and the “Effect in % after 14d” value (Meloidogyne incognita) was 100%.
For COCCOC1CCC2(CC1)NC(=O)C(c1cc(C)ccc1C)=C2O (single isomer, unassigned) [Ex. I-1-a-5], the “Kill rate in % after 7d” value ([1]; 1000 ppm) was 100% and the “Kill rate in % after 6d” value ([5]; 1000 ppm) was 98%.
With C=CCOC1CCC2(CC1)NC(=O)C(c1c(C)cc(Cl)cc1C)=C2OC(=O)OCC (single isomer, unassigned) [Ex. I-1-c-2] the “Effect in % after 14d” value (Meloidogyne incognita) was 100% and the “Kill rate in % after 6d” value ([5]; 500 ppm) was 95%.
For Cc1cc(C)c(C2=C(O)C3(CCC(OCCOC(C)C)CC3)NC2=O)c(C)c1C (single isomer, unassigned) [Ex. I-1-a-2], the “Kill rate in % after 7d” value [4] was 100%, the “Kill rate in % after 7d” value [3] was 95% and the “Kill rate in % after 6d” value ([5]; 1000 ppm) was 100%.
For Cc1cc(C)c(C2=C(O)C3(CCC(OCC4CCCO4)CC3)NC2=O)c(C)c1C (single isomer, unassigned) [Ex. I-1-a-6], the “Kill rate in % after 7d” value [4] was 100%.
With C=CCOC1CCC2(CC1)NC(=O)C(c1c(C)cc(Cl)cc1Cl)=C2O (single isomer, unassigned) [Ex. I-1-a-13] the “% damage” value (Alopecurus [6]; 2000 g of ai/ha) was 95% and 90%.
For Cc1ccc(C)c(C2=C(O)C3(CCC(OCc4cccc(Cl)c4)CC3)NC2=O)c1 (single isomer, unassigned) [Ex. I-1-a-25], the “Kill rate in % after 7d” value [4] was 100%.
In the case of COCCOC1CCC2(CC1)NC(=O)C(c1c(C)cc(C)cc1C)=C2O (single isomer, unassigned) [Ex. I-1-a-4], the “Kill rate in % after 7d” value ([1]; 1000 ppm) is reported as 100%, the “% damage” value (Amaranthus [7]; 250 g of ai/ha) is reported as 95% and the “% damage” value (Setaria [8]) is reported as 100%. The “% damage” value (Alopecurus [6]; 250 g of ai/ha) was 80% and the “Kill rate in % after 6d” value ([5]; 1000 ppm) was 90%.
For Cc1ccc(C)c(C2=C(O)C3(CCC(OCC4CCCO4)CC3)NC2=O)c1 (single isomer, unassigned) [Ex. I-1-a-9], the “Kill rate in % after 7d” value [4] was 100%.
For C=CCOC1CCC2(CC1)NC(=O)C(c1c(C)cc(Cl)cc1Cl)=C2O (single isomer, unassigned) [Ex. I-1-a-12], the “Kill rate in % after 7d” value ([1]; 500 ppm) was 100% and the “% damage” value (Amaranthus [7]; 2000 g of ai/ha) was 90%.
Cc1cc(Cl)cc(C)c1C1=C(O)C2(CCC(OCC3CCCO3)CC2)NC1=O (single isomer, unassigned) [Ex. I-1-a-10] was tested, and the “Kill rate in % after 7d” value [4] was 100%, the “% damage” value (Amaranthus [9]) was 90% and the “% damage” value (Setaria [10]) was 95%. For the same compound, the “% damage” value (Sinapis [11]) was 80%, the “% damage” value (Sugar beet) was 0% and the “% damage” value (Alopecurus [12]) was 70%.
